Data reported in US10897891B2, “Compositions and methods for prolonged cell storage” (Board of Regents, The University of Texas System, priority 2015, dated 2021).
Entries after “also recorded” stand apart in the source; their conditions may differ.

Tests used:
[1] = tested on: platelets; assay: Cholesterol membrane capping with the fluorescent cholesterol probe filipin (Experiment F); format: cell-based, human; details: 5° C. overnight
Experimental: (Note 1: Stock solutions were prepared in DMSO that was rigorously dried with an equal volume of A-3 molecular sieve that had been regenerated at 300° C. overnight. The resultant filipin stock 25 mg/ml DMSO solution was prepared in a nitrogen atmosphere and frozen at −70° C. to limit water induced hydrolysis.)
Approximately 3 ml of residual pooled platelets were obtained after 72 hr at standard storage conditions. 100 ul of platelets were mixed with 100 ul of fresh filipin (300 ug/ml in PBS+10%, DMSO) in each of 12 wells of a 24 well cluster plate and incubated at room temperature for 35 min. (DMSO was included to assist with membrane loading of the highly insoluble filipin molecule.) All wells were then diluted by adding 2.5 ml of PBS and incubated another 15 min to dilute unbound filipin and allow removal of DMSO by dilution. The plate was next centrifuged at 2500 g for 20 min in a pre-warmed centrifuge at 22° C. All wells were gently aspirated and the PBS was replaced with 3 ml of control or test platelets as follows:
All wells were next incubated 20 min at room temperature to allow DMSO to equilibrate. (Note: the final DMSO concentration in the Control wells or the PEG-400 only wells would be 6 parts in 10,000 or 0.06%.) Next the plate was held at 5° C. overnight and in the morning centrifuged in a 5° C. equilibrated centrifuge at 2,500 g for 20 min. Cold 4% Formalin/PBS was carefully added and the plate returned to 5° C. for overnight incubation. At 18 hr the plate was allowed to fix again at room temperature in the dark for 4 hours. Subsequently the formalin was aspirated and the plate washed with 4 changes of 2 ml of PBS. Finally, excess fluid was removed and the wells were photographed with an inverted fluorescent microscope. Note 2: Filipin is rapidly photo-bleached with the UV, thus the light intensity was lowered with a barrier filter of ˜20% was used. This filter setting was used consistently for all photographs. All photographs were taken under the same camera conditions. No post photographic image alterations were made. […]

[2] = tested on: macrophage like cell line U937; assay: Platelet binding to the macrophage like cell line U937 (Experiment E); format: cell-based, human; details: 2% PEG-400, 5° C. overnight
Experimental: U937 is a cell line derived from a patient with Acute Myelo-Monocytic Leukemia. […] In this binding experiment 5 day old platelets from the blood bank are held in a standard storage media referred to as ACD on a flat-bed shaker under standard conditions of rotation. ‘ACD’ contains […], Sodium Citrate, and Dextrose. These platelets were split into two conditions, control and 2%/0 PEG-400, in a 12 well plate format with a final volume of 100 ul per well. All wells were incubated overnight at 5° C. All wells where then stained with fluorescein Diacetate (Sigma product F7378). This agent was protected from light and 1 mg was dissolved in 10 ml acetone and stored at −70° C. FDA was diluted […] in PBS immediately prior to use (Miyamoto el al., 2000.) All platelet wells received 2.5 ug final per well of fluorescein diacetate (FA) contained in 50 ul PBS. After 1 hr at room temp a further 100 ul of PBS was added and the 12 well plates were centrifuged at 3000 g for 20 min at RT. 150 ul excess fluid was carefully removed from all wells and discarded. Platelets were gently suspended. […] Wells were examined and photographed with an inverted fluorescence microscope. […]
Control conditions had standard 75 ul of ACD suspended platelets, plus 25 μl PBS in the control wells. […] Wells were examined with an inverted fluorescence microscope.

For Polyethylene glycol [PEG-400], the “filipin clustering / cholesterol capping vs PBS control” value ([1]; 2% PEG-400 in PBS) was “less filipin clustering; also recorded: less cholesterol capping”, the “filipin clustering / cholesterol capping vs PBS control” value ([1]; 4% PEG-400 in PBS) was “less cholesterol capping” and the “filipin clustering / cholesterol capping vs PBS control” value ([1]; 4% PEG-400 in PBS, listed as PEG) was “less filipin clustering”. The “adsorption of cold stored platelets to U937 cells” value [2] was “substantially block adsorption of cold stored platelets to macrophage like cells” and the “adsorption of cold stored platelets to U937 cells” value ([2]; listed as PEG) was “only a few attached strongly fluorescent platelets”.
